Experimental data: article PMC6272684, “Synthesis, Antiproliferative and Antifungal Activities of 1,2,3-Triazole-Substituted Carnosic Acid and Carnosol Derivatives” (Molecules, 2015)

Key:
[1] = test system: gastric epithelial adenocarcinoma (AGS) cells; assay: Antiproliferative assay (MTT reduction, 3 days); format: cell-based, human; conditions: >100 µM considered inactive; for IC50: read-out: IC50 ± SD, AGS
Protocol: (§1) The antiproliferative activity towards the following human cell lines was determined: normal lung fibroblasts (MRC-5), gastric epithelial adenocarcinoma (AGS), lung cancer (SK-MES-1) and bladder carcinoma (J82) cells. […] When comparing the pairs 3–4, 5–6 and 7–8 differing in one CH2 unit in the linker, the activity decreased with linker length.
(§2) All human cell lines used in this work were purchased from the American Type Culture Collection (ATCC, Manasas, VA, USA). Normal lung MRC-5 fibroblasts (CCL-171), SK-MES-1 lung cancer cells (HTB-58) and J82 bladder carcinoma cells (HTB-1) were grown as monolayers in minimum essential Eagle medium (MEM) with Earles’s salts, 2 mM L-glutamine and 1.5 g∙L^−1 sodium bicarbonate. Gastric adenocarcinoma AGS cells (CRL-1739) were grown as monolayers in Ham F-12 medium containing 1 mM L-glutamine and 1.5 g∙L^−1 sodium bicarbonate. All media were supplemented with 10% heat-inactivated FBS, 100 IU∙mL^−1 penicillin and 100 µg∙mL^−1 streptomycin. Cells were grown in a humidified incubator with 5% CO2 in air at 37 °C. For the antiproliferative assay, cells were plated at a density of 5 × 10^4 cells∙mL^−1. Cells were seeded in 96-well plates (100 µL∙well^−1). One day after seeding, cells were treated with medium containing the compounds at concentrations ranging from 0 up to 100 µM during 3 days. The compounds were dissolved in DMSO (1% final concentration) and complete medium. Untreated cells (medium containing 1% DMSO) were used as 100% viability controls. […] Each concentration was tested in sextuplicate and experiments were repeated 2 times. Cell viability was determined by means of the MTT reduction assay at the end of the incubation with the products. The results were transformed to percentage of controls and the IC50 value was obtained adjusting the dose-response curve to a sigmoidal model. The software used was OriginPro 8.1 [30].

[2] = test system: bladder carcinoma (J82) cells; assay: Antiproliferative assay (MTT reduction, 3 days); format: cell-based, human; conditions: J82 cells, 3 days, MTT; >100 µM considered inactive; read-out: IC50 ± SD, J82
Protocol: as §1, §2

C. albicans ATCC 10231 = assay: Antifungal broth microdilution (CLSI M27-A3), growth inhibition; format: cell-based, Candida albicans; conditions: for MIC50 (minimum concentration to inhibit 50% of fungal growth), C. albicans: C. albicans ATCC 10231
Procedure, shortened: (§3)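 Yeast inocula (1–5 × 10^3 CFU/mL) were tested by CLSI M27-A3 broth microdilution in RPMI-1640 at 250–3.9 μg∙mL^−1 (DMSO ≤1%) for 48 h at 30 °C in the dark. Growth was read at OD405, and % inhibition was calculated against growth and sterility controls in triplicate. MIC100 is total inhibition; MIC50 is 50% inhibition.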

C. neoformans ATCC 32264 = assay: as above; format: cell-based, Cryptococcus neoformans; conditions: for MIC50 (minimum concentration to inhibit 50% of fungal growth), C. neoformans: C. neoformans ATCC 32264
Procedure, shortened: as §3

[3] = test system: lung cancer (SK-MES-1) cells; assay: Antiproliferative assay (MTT reduction, 3 days); format: cell-based, human; conditions: >100 µM considered inactive, read-out: IC50 ± SD, SK-MES-1
Protocol: (§4) The antiproliferative activity towards the following human cell lines was determined: normal lung fibroblasts (MRC-5), gastric epithelial adenocarcinoma (AGS), lung cancer (SK-MES-1) and bladder carcinoma (J82) cells.
as §2, with “Normal lung MRC-5 fibroblasts (CCL-171), SK-MES-1 lung cancer cells (HTB-58) and J82 bladder carcinoma cells (HTB-1) were grown as monolayers in minimum essential Eagle medium (MEM) with Earles’s salts, 2 mM L-glutamine and 1.5 g∙L^−1 sodium bicarbonate. Gastric adenocarcinoma AGS cells (CRL-1739) were grown as monolayers in Ham F-12 medium containing 1 mM L-glutamine and 1.5 g∙L^−1 sodium bicarbonate.” left out, “The results were transformed to percentage of controls and the IC50 value was obtained adjusting the dose-response curve to a sigmoidal model.” left out

[4] = test system: normal lung fibroblasts (MRC-5); assay: Antiproliferative assay (MTT reduction, 3 days); format: cell-based, human; conditions: MRC-5 normal fibroblasts, >100 µM considered inactive; for IC50: read-out: IC50 ± SD, MRC-5
Protocol: as §4
as §2, with “Normal lung MRC-5 fibroblasts (CCL-171), SK-MES-1 lung cancer cells (HTB-58) and J82 bladder carcinoma cells (HTB-1) were grown as monolayers in minimum essential Eagle medium (MEM) with Earles’s salts, 2 mM L-glutamine and 1.5 g∙L^−1 sodium bicarbonate. Gastric adenocarcinoma AGS cells (CRL-1739) were grown as monolayers in Ham F-12 medium containing 1 mM L-glutamine and 1.5 g∙L^−1 sodium bicarbonate.” left out, “The results were transformed to percentage of controls and the IC50 value was obtained adjusting the dose-response curve to a sigmoidal model.” left out

SMILES	IC50 [1] [µM]	IC50 [2] [µM]	Inhibition percentage against C. albicans ATCC 10231 (C. albicans ATCC 10231; 3.9 μg∙mL^−1, 48 h) [%]	Inhibition percentage against C. albicans ATCC 10231 (C. albicans ATCC 10231; 7.8 μg∙mL^−1, 48 h) [%]	Inhibition percentage against C. albicans ATCC 10231 (C. albicans ATCC 10231; 15.6 μg∙mL^−1, 48 h) [%]	Inhibition percentage against C. albicans ATCC 10231 (C. albicans ATCC 10231; 62.5 μg∙mL^−1, 48 h) [%]	Inhibition percentage against C. albicans ATCC 10231 (C. albicans ATCC 10231; 125 μg∙mL^−1, 48 h) [%]	Inhibition percentage against C. albicans ATCC 10231 (C. albicans ATCC 10231; 250 μg∙mL^−1, 48 h) [%]	Inhibition percentage against C. albicans ATCC 10231 (C. albicans ATCC 10231; 31. μg∙mL^−1, 48 h) [%]	MIC50 (minimum concentration to inhibit 50% of fungal growth), C. albicans (C. albicans ATCC 10231) [µg/mL]	Inhibition percentage against C. neoformans ATCC 32264 (C. neoformans ATCC 32264; 3.9 μg∙mL^−1, 48 h) [%]	Inhibition percentage against C. neoformans ATCC 32264 (C. neoformans ATCC 32264; 7.8 μg∙mL^−1, 48 h) [%]	Inhibition percentage against C. neoformans ATCC 32264 (C. neoformans ATCC 32264; 15.6 μg∙mL^−1, 48 h) [%]	Inhibition percentage against C. neoformans ATCC 32264 (C. neoformans ATCC 32264; 31.2 μg∙mL^−1, 48 h) [%]	Inhibition percentage against C. neoformans ATCC 32264 (C. neoformans ATCC 32264; 62.5 μg∙mL^−1, 48 h) [%]	Inhibition percentage against C. neoformans ATCC 32264 (C. neoformans ATCC 32264; 125 μg∙mL^−1, 48 h) [%]	Inhibition percentage against C. neoformans ATCC 32264 (C. neoformans ATCC 32264; 250 μg∙mL^−1, 48 h) [%]	MIC50 (minimum concentration to inhibit 50% of fungal growth), C. neoformans (C. neoformans ATCC 32264) [µg/mL]	IC50 [3] [µM]	IC50 [4] [µM]	also measured
CC(C)c1cc2c3c(c1OC(=O)CCc1cn(Cc4ccc([N+](=O)[O-])cc4)nn1)OC(=O)C31CCCC(C)(C)C1CC2 (stereo not shown) [Compound 7, 12-O-(3-(1-(4-nitrobenzyl)-1H-1,2,3-triazol-4-yl)-propanoyloxy)-11,20-epoxyabieta-8,11,13-trien-20-one]	64.3 ± 4.5	> 100	0.0	0.9 ± 0.2	2.1 ± 0.1	2.5 ± 0.5	10.5 ± 3.0	15.5 ± 1.1	2.2 ± 0.7	>250	0.0	0.0	0.0	0.0	0.0	20.0 ± 1.1	28.2 ± 2.7	>250	> 100	60.6 ± 3.6	
CC(C)c1cc2c3c(c1OC(=O)CCc1cn(Cc4ccc(Br)cc4)nn1)OC(=O)[C@@]31CCCC(C)(C)[C@@H]1CC2 [Compound 5, 12-O-(3-(1-(4-bromobenzyl)-1H-1,2,3-triazol-4-yl)-propanoyloxy)-11,20-epoxyabieta-8,11,13-trien-20-one]	> 100	> 100	0.0	0.0	0.0	4.1 ± 1.7	8.3 ± 3.3	16.5 ± 1.3	3.0 ± 2.7	>250	2.3 ± 0.9	6.0 ± 0.7	7.7 ± 0.6	8.7 ± 1.4	12.0 ± 1.0	12.6 ± 0.5	36.9 ± 2.2	>250	> 100	82.6 ± 6.6	
CC(C)c1cc2c3c(c1OC(=O)CCc1cn(Cc4ccccc4)nn1)OC(=O)[C@@]31CCCC(C)(C)[C@@H]1CC2 [Compound 3, 12-O-(3-(1-benzyl-1H-1,2,3-triazol-4-yl)-propanoyloxy)-11,20-epoxyabieta-8,11,13-trien-20-one]	48.9 ± 3.9	74.1 ± 3.9	5.7 ± 0.8	8.1 ± 0.8	9.1 ± 1.5	14.3 ± 2.0	20.2 ± 2.2	20.3 ± 3.9	11.1 ± 0.4	>250	4.9 ± 0.5	9.0 ± 0.3	9.7 ± 0.1	14.3 ± 2.0	16.7 ± 0.5	18.4 ± 0.2	26.7 ± 1.5	>250	73 ± 3.9	43.4 ± 3	IC50 ± SD, AGS [1]: active; Antifungal activity against C. albicans (in words) (C. albicans ATCC 10231; at the assayed concentrations (250–3.9 μg∙mL^−1)): devoid of activity; IC50 ± SD, MRC-5 [4]: active
CC(C)c1cc2c3c(c1OC(=O)CCCc1cn(Cc4ccccc4)nn1)OC(=O)C31CCCC(C)(C)C1CC2 (stereo not shown) [Compound 4, 12-O-(4-(1-benzyl-1H-1,2,3-triazol-4-yl)-butanoyloxy)-11,20-epoxyabieta-8,11,13-trien-20-one]	> 100	> 100	3.7 ± 0.4	4.1 ± 1.7	9.5 ± 1.3	16.4 ± 2.3	28.2 ± 2.1	51.6 ± 0.1	10.2 ± 1.2	250	0.0	0.0	2.3 ± 1.0	8.5 ± 1.0	9.8 ± 1.1	17.8 ± 1.4	53.4 ± 2.1	250	> 100	> 100	IC50 ± SD, AGS [1]: inactive; IC50 ± SD, MRC-5 [4]: inactive
